Data: patent publication US20030036111A1, “Mitochondrial protein” (priority 2001, published 2003)
Entries after “also recorded” stand apart in the source; their conditions may differ.

Experiments:
Format in all cases: biochemical
[1] = biological target: T1, human DNC (mitochondrial deoxynucleotide carrier) (Homo sapiens, UniProt Q9HC21); experiment: Inhibition of [α-35S]dATP uptake (dATP/ADP exchange) by external substrates and carrier inhibitors; conditions: external substrates 0.5 mM; internal 10 mM ADP; 125 mM [α-35 S]dATP; 2 min
T1 construct: Amino acids are numbered from 1-320; made in house; host or cells: E. coli BL21(DE3), pET21b; inclusion bodies solubilized in sarkosyl, Ni-NTA purified
T1 sequence (Q9HC21 2-320 limits assumed): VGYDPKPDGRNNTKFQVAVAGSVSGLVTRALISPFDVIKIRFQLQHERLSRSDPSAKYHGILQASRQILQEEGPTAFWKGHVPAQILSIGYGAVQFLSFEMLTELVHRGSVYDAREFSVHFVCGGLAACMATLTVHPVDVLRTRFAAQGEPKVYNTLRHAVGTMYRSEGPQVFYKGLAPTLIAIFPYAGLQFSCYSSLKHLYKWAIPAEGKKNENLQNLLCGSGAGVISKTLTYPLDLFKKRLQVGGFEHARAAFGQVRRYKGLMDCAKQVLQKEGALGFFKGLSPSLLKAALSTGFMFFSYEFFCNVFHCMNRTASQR
Experimental: (§1) FIG. 3. Time course of dATP/ADP exchange and substrate specificity of human DNC. (a) Time course of [α-35 S]dATP/ADP exchange in proteoliposomes reconstituted with the recombinant DNC. [α-35 S]dATP (1 mM) was added to proteoliposomes containing 10 mM ADP (⋄) or 10 mM NaCl (∇). (b) Dependence of DNC activity on internal substrate. Proteoliposomes were preloaded internally with various substrates (concentration 10 mM). Trans-port was started by addition of […] [α-35 S]dATP and stopped after 2 min. The values are means 6 SD of at least three experiments. (c) Inhibition of the rate of [α-35 S]dATP uptake by external substrates. Proteoliposomes were preloaded internally with 10 mM ADP. Transport was started by adding 125 mM [α-35 S]dATP and stopped after 2 min. External substrates (concentration 0.5 mM) were added together with [α-35 S]dATP. The extents of inhibition (%) from a representative experiment are reported.
(§2) The recombinant protein in sarkosyl was reconstituted into liposomes in the presence of substrates (10). Both cardiolipin (1.14 mg/ml) and EDTA (1 mM) were added. Transport was measured at 25° C. with internal and external pHs at 6.8. It was started by adding [α-35S]dATP or [^14C]-ADP and terminated after 2 min by addition of 100 mM of p-chloromercuribenzene sulfonate (10). Entrapped radioactivity was counted (10). The initial transport rate was calculated from the radioactivity taken up by proteoliposomes within 2 min (in the initial linear range). Other transport activities were assayed similarly (10).

[2] = biological target: T1, human DNC (mitochondrial deoxynucleotide carrier); experiment: Dependence of DNC activity ([α-35S]dATP uptake) on internal substrate; conditions: internal substrate 10 mM; for rate of [α-35 S]dATP uptake into proteoliposomes with internal substrate: 2 min
Experimental: as §1, with “Transport was started by adding 125 mM [α-35 S]dATP and stopped after 2 min.” left out
as §2, with “Both cardiolipin (1.14 mg/ml) and EDTA (1 mM) were added.” left out

[3] = biological target: T1, human DNC (mitochondrial deoxynucleotide carrier); experiment: Inhibition of [α-35S]dATP uptake (dATP/ADP exchange) by external substrates and carrier inhibitors; conditions: for Ki: read-out: Ki, competitive inhibition of [α-35 S]dATP uptake by external substrate; for Ki, competitive inhibition of [α-35 S]dATP uptake by external substrate: internal ADP or dADP 10 mM
[4] = biological target: T1, human DNC (mitochondrial deoxynucleotide carrier); experiment: Homo-exchange of other carrier substrates in DNC proteoliposomes; conditions: internal concentration 10 mM; external concentration 1 mM
Experimental: as §2, with “Both cardiolipin (1.14 mg/ml) and EDTA (1 mM) were added.” left out

[5] = inhibitor 2 mM, internal 10 mM ADP, 2 min
[6] = inhibitor 10 mM, internal 10 mM ADP, 2 min
[7] = inhibitor 0.1 mM, internal 10 mM ADP, 2 min

Compound	effect of external substrate on [α-35 S]dATP/ADP exchange [1]	rate of [α-35 S]dATP uptake into proteoliposomes with internal substrate [2]	further results
Nc1nc2c(ncn2[C@H]2C[C@H](O)[C@@H](CO)O2)c(=O)[nH]1 [deoxyguanosine]	no effect	virtually no activity	–
CCN1C(=O)C=CC1=O [N-ethylmaleimide]	–	–	inhibition of uptake of [α-35 S]dATP [3, 5]: No significant inhibition
C=C1[C@@H](C)[C@H]2[C@H](Cc3ccccc3)NC(=O)[C@]23OC(=O)/C=C/[C@H](O)CCC[C@@H](C)C/C=C/[C@H]3[C@@H]1O [cytochalasin B]	–	–	inhibition of uptake of [α-35 S]dATP ([3]; inhibitor 0.033 mM, internal 10 mM ADP, 2 min): No significant inhibition
Nc1ccn([C@@H]2O[C@H](CO)[C@@H](O)[C@H]2O)c(=O)n1 [cytidine]	no effect	virtually no activity	–
NC(=O)C1=CN([C@@H]2O[C@H](COP(=O)(O)OP(=O)(O)OC[C@H]3O[C@@H](n4cnc5c(N)ncnc54)[C@H](O)[C@@H]3O)[C@@H](O)[C@H]2O)C=CC1 [NADH]	–	virtually no activity	–
Nc1cc[nH]c(=O)n1 [cytosine]	no effect	virtually no activity	–
O=C(O)/C=C/C(=O)O [fumarate]	–	–	homo-exchange catalysed by reconstituted DNC [4]: did not catalyse
CO[C@H](C/C=C\C=C\CC/C=C/C[C@H](C)/C=C/C(=C\C(=O)O)CC(=O)O)/C(C)=C\C=C(/C)C(=O)O [bongkrekate]	–	–	inhibition of uptake of [α-35 S]dATP ([3]; inhibitor 0.01 mM, internal 10 mM ADP, 2 min): 37%
dADP	–	highest rates	–
Cc1cn([C@H]2C[C@H](O)[C@@H](CO)O2)c(=O)[nH]c1=O [deoxythymidine]	no effect	virtually no activity	–
Nc1nc2nc[nH]c2c(=O)[nH]1 [guanine]	no effect	virtually no activity	–
N#CC(=Cc1ccc(O)cc1)C(=O)O [a-cyano-4-hydroxycinnamate]	–	–	inhibition of uptake of [α-35 S]dATP [3, 5]: No significant inhibition
Cc1ncc(COP(=O)(O)O)c(C=O)c1O [pyridoxal 5′-phosphate]	–	–	inhibition of uptake of [α-35 S]dATP [3, 6]: completely
Nc1ncnc2c1ncn2[C@H]1CC[C@@H](COP(=O)(O)OP(=O)(O)OP(=O)(O)O)O1 [ddATP]	–	–	Ki [3]: 25 µM
O=C(O)c1cccc(C(=O)O)c1C(=O)O [1,2,3-benzenetricarboxylate]	–	–	dATP/ADP exchange rate reduced to (remaining rate) [3, 5]: 40%
c1ccc(-c2ccnc3c2ccc2c(-c4ccccc4)ccnc23)cc1 [bathophenathroline]	–	–	inhibition of uptake of [α-35 S]dATP [3, 6]: 41%
O=c1ccn([C@@H]2O[C@H](COP(=O)(O)OP(=O)(O)O)[C@@H](O)[C@H]2O)c(=O)[nH]1 [UDP]	–	significant activities	–
O=C(O)CC(O)(CC(=O)O)C(=O)O [citrate]	–	virtually no activity	–
Nc1ncnc2c1ncn2[C@H]1C[C@H](O)[C@@H](CO)O1 [deoxyadenosine]	no effect	virtually no activity	–
Nc1ccn([C@H]2CC[C@@H](COP(=O)(O)OP(=O)(O)OP(=O)(O)O)O2)c(=O)n1 [ddCTP]	–	–	Ki [3]: 70 µM

Compound	effect of external substrate on [α-35 S]dATP/ADP exchange [1]	rate of [α-35 S]dATP uptake into proteoliposomes with internal substrate [2]	further results
CCCCC(C(=O)O)C(=O)O [butylmalonate]	–	–	inhibition of uptake of [α-35 S]dATP [3, 5]: No significant inhibition
phosphate	–	virtually no activity	–
Nc1nc2c(ncn2[C@@H]2O[C@H](COP(=O)(O)OP(=O)(O)O)[C@@H](O)[C@H]2O)c(=O)[nH]1 [GDP]	–	significant activities; also recorded: rather poorly	–
Nc1ncnc2nc[nH]c12 [adenine]	no effect	virtually no activity	–
O=c1ccn([C@H]2C[C@H](O)[C@@H](CO)O2)c(=O)[nH]1 [deoxyuridine]	no effect	virtually no activity	–
NCC(=O)O [glycine]	–	virtually no activity	–
Nc1ncnc2c1ncn2[C@@H]1O[C@H](COP(=O)(O)OP(=O)(O)OP(=O)(O)O)[C@@H](O)[C@H]1O [ATP]	–	lower rate	–
Nc1ncnc2c1ncn2[C@@H]1O[C@H](CO)[C@@H](O)[C@H]1O [adenosine]	no effect	virtually no activity	–
C=C1[C@@H]2CC[C@H]3[C@]4(C)C[C@H](O[C@@H]5O[C@H](CO)[C@@H](OS(=O)(=O)O)[C@H](OS(=O)(=O)O)[C@H]5OC(=O)CC(C)C)CC(C(=O)O)(C(=O)O)[C@H]4CC[C@]3(C2)[C@H]1O [carboxyatractyloside]	–	–	inhibition of uptake of [α-35 S]dATP [3, 7]: 42%
Cc1c[nH]c(=O)[nH]c1=O [thymine]	no effect	virtually no activity	–
O=S(=O)([O-])c1cc[c]([Hg][Cl])cc1 [p-chloromercuribenzene sulfonate]	–	–	inhibition of uptake of [α-35 S]dATP [3, 7]: completely
O=c1ccn([C@@H]2O[C@H](CO)[C@@H](O)[C@H]2O)c(=O)[nH]1 [uridine]	no effect	virtually no activity	–
O=C(O)CC(C(=O)O)c1ccccc1 (stereo not shown) [phenylsuccinate]	–	–	inhibition of uptake of [α-35 S]dATP [3, 5]: No significant inhibition
O=c1cc[nH]c(=O)[nH]1 [uracil]	no effect	virtually no activity	–
O=c1ccn([C@H]2C[C@H](O)[C@@H](COP(=O)(O)OP(=O)(O)O)O2)c(=O)[nH]1 [dUDP]	–	–	Ki, competitive inhibition of [α-35 S]dATP uptake by external substrate [3]: higher
Nc1ccn([C@@H]2O[C@H](COP(=O)(O)OP(=O)(O)O)[C@@H](O)[C@H]2O)c(=O)n1 [CDP]	–	significant activities	–
O=c1ccn([C@H]2C[C@H](O)[C@@H](COP(=O)(O)OP(=O)(O)OP(=O)(O)O)O2)c(=O)[nH]1 [dUTP]	–	–	Ki, competitive inhibition of [α-35 S]dATP uptake by external substrate [3]: higher
O=P(O)(O)OP(=O)(O)O [pyrophosphate]	–	much lower activities	exchange relative to ADP exchange ([2]; [α-35 S]dATP uptake): 22%
Nc1nc2c(ncn2[C@@H]2O[C@H](CO)[C@@H](O)[C@H]2O)c(=O)[nH]1 [guanosine]	no effect	virtually no activity	–
Nc1ccn([C@H]2C[C@H](O)[C@@H](CO)O2)c(=O)n1 [deoxycytidine]	no effect	virtually no activity	–
